Activity calls are given as the source filed them. The rule behind the calls is not given here.
Assays:
Histamine H3 receptor = Histamine H3 receptor (Homo sapiens, UniProt Q9Y5N1); experiment: Displacement of [3H]UR-P129 from human histamine H3 receptor expressed in sf9 insect cell membranes co-expressing Galphai2/Gbeta1gamma2 incubated for 60 mins by microbeta scintillation counting method; parameters: species or system Membrane
Histamine H4 receptor = Histamine H4 receptor (Homo sapiens, UniProt Q9H3N8)
Histamine H4 receptor, sequence (Q9H3N8 whole entry): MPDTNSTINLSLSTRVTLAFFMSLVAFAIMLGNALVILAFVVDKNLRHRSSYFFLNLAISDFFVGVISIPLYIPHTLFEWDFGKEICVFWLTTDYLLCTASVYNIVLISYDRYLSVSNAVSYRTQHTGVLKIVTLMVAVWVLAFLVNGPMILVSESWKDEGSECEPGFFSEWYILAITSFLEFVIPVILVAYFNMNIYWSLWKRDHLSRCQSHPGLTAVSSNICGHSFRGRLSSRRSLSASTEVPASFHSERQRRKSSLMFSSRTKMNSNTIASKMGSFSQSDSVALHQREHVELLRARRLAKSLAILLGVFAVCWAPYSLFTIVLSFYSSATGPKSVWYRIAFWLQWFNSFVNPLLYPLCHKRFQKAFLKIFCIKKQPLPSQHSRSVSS

Histamine H2 receptor [1] = biological target: T1, Histamine H2 receptor (Homo sapiens, UniProt P25021); experiment: Agonist activity at human histamine H2 receptor expressed in HEK293T cells co-expressing ELucC by beta arrestin2 recruitment assay; format: functional, cell-based
T1 sequence (P25021 whole entry): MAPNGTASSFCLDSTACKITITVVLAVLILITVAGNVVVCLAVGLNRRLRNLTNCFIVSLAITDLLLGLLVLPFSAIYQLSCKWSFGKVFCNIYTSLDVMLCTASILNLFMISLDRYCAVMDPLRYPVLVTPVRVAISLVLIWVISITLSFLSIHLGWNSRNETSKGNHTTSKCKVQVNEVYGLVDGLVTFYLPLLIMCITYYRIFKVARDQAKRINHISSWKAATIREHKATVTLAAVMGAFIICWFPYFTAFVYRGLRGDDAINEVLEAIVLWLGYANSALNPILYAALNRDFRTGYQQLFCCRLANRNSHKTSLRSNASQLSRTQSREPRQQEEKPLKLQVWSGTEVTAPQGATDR

Histamine H2 receptor [2] = biological target: T1, Histamine H2 receptor; experiment: Agonist activity at human histamine receptor expressed in sf9 insect cell membranes co-exprssing GsalphaS incubated for 90 mins [35S]GTPgammaS binding based microbeta scintillation counting analysis; format: functional, Membrane
Histamine H2 receptor [3] = biological target: T1, Histamine H2 receptor; experiment: Agonist activity at human histamine H2 receptor expressed in HEK293T cells co-expressing ELucC assessed as intrinsic activity at >= 30 uM by beta arrestin2 recruitment assay relative to histamine; format: functional, cell-based; conditions: filed as agonist, dose microM >=30
Histamine H2 receptor [4] = biological target: T1, Histamine H2 receptor; experiment: Agonist activity at human histamine H2 receptor expressed in sf9 insect cell membranes co-exprssing GsalphaS assessed as intrinsic activity at >=30 uM incubated for 90 mins [35S]GTPgammaS binding based microbeta scintillation counting analysis relative to histamine; format: functional; conditions: Membrane, filed as agonist, dose microM >=30, time 90.0 min
Histamine H2 receptor [5] = biological target: T1, Histamine H2 receptor; experiment: Displacement of [3H]UR-DE257 from human histamine H2 receptor expressed in sf9 insect cell membranes co-expressing GSalphaS incubated for 60 mins by microbeta scintillation counting method; parameters: species or system Membrane
Histamine H1 receptor = Histamine H1 receptor (Homo sapiens, UniProt P35367); experiment: Displacement of [3H]mepyramine from human histamine H1 receptor expressed in sf9 insect cell membranes co-expressing RGS4 incubated for 60 mins by microbeta scintillation counting method; parameters: species or system Membrane
Histamine H1 receptor, sequence (P35367 whole entry): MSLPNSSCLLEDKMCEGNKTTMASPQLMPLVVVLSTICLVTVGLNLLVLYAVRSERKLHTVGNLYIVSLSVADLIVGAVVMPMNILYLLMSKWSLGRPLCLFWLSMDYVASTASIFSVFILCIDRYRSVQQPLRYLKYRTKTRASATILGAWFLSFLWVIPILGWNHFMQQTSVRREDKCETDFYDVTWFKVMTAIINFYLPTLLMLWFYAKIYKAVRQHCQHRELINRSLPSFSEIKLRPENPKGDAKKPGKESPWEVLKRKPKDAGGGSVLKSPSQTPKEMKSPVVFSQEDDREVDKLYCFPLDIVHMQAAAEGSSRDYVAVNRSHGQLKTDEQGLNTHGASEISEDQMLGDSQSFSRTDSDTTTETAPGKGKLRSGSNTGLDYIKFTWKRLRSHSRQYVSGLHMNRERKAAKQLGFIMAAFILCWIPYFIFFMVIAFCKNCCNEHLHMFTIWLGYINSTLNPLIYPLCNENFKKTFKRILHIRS

D(2) dopamine receptor [6] = biological target: T2, D(2) dopamine receptor (Homo sapiens, UniProt P14416); experiment: Displacement of [3H]N-methylspiperone from human D2L receptor expressed in HEK293T cells co-expressing CRE-Luc incubated for 60 mins by microbeta scintillation counting method; format: cell-based
T2 sequence (P14416 whole entry): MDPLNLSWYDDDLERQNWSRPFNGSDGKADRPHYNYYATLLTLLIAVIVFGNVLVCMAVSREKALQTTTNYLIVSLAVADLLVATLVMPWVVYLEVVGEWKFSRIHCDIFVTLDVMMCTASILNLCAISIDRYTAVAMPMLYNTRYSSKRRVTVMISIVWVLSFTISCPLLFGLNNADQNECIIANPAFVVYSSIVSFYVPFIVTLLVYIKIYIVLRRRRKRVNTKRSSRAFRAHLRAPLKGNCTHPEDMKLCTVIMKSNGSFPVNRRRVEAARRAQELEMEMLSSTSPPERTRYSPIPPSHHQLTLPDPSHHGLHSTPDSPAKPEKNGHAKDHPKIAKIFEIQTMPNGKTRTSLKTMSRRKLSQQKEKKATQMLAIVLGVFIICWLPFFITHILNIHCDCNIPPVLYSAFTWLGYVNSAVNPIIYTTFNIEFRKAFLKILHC

D(3) dopamine receptor [7] = biological target: T3, D(3) dopamine receptor (Homo sapiens, UniProt P35462); experiment: Displacement of [3H]N-methylspiperone from human D3 receptor expressed in HEK293T cells co-expressing CRE-Luc incubated for 60 mins by microbeta scintillation counting method; format: cell-based
T3 sequence (P35462 whole entry): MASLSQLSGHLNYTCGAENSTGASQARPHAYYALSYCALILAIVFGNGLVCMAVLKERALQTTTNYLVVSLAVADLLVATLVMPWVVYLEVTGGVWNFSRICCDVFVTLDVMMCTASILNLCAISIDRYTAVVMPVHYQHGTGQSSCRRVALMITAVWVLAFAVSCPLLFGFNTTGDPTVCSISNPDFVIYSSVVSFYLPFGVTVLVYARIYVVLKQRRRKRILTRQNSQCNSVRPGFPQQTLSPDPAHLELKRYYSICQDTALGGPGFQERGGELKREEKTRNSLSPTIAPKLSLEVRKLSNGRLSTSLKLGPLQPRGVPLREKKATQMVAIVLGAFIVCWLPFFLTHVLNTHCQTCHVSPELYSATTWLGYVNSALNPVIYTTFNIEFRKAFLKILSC

Histamine H2 receptor [8] = biological target: T1, Histamine H2 receptor; conditions: Sf9, Membrane, filed as agonist, time 90.0 min
[9] = biological target: Histamine H2 receptor (Cavia porcellus) (UniProt P47747); experiment: (§1) Agonist activity at guinea pig right atrium histamine H2 receptor assessed as increase in heart rate incubated for 30 mins in presence of cimetidine; format: functional, tissue-based; conditions: Right cardiac atrium
Histamine H2 receptor (Cavia porcellus), sequence (P47747 whole entry): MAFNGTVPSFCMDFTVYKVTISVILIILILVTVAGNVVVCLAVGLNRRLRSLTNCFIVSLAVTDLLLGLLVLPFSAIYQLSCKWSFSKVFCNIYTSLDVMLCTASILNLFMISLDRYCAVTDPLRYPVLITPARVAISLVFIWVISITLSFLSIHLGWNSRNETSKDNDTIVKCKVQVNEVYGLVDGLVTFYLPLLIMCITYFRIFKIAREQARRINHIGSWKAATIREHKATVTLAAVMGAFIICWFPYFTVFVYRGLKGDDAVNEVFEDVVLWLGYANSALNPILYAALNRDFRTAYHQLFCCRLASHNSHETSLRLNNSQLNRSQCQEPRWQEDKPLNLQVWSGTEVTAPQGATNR

D(2) dopamine receptor [10] = biological target: T2, D(2) dopamine receptor; format: functional, cell-based, HEK293T
D(3) dopamine receptor [11] = biological target: T3, D(3) dopamine receptor; experiment: Agonist activity at […] expressed in HEK293T cells co-expressing ELucC by beta arrestin2 recruitment assay; format: functional, cell-based
[12] = Dissociation constant, pKa of compound in NaOH; format: physicochemical; conditions: NaOH solution
[13] = Dissociation constant, pKa of compound in aqueous solution in presence of HCL; format: physicochemical; conditions: aqueous solution with HCl
[14] = Dissociation constant, pKa of compound in aqueous solution; format: physicochemical
[15] = biological target: Histamine H2 receptor (Cavia porcellus) (UniProt P47747); experiment: Agonist activity at guinea pig right atrium histamine H2 receptor assessed as intrinsic activity incubated for 30 mins in presence of cimetidine relative to histamine; format: functional, tissue-based; conditions: Right cardiac atrium, filed as agonist
Histamine H2 receptor [16] = biological target: Histamine H2 receptor (Cavia porcellus, UniProt P47747); experiment: as §1; format: functional, tissue-based, Right cardiac atrium
Histamine H2 receptor (Cavia porcellus, UniProt P47747), sequence (P47747 whole entry): as above

[17] = Dissociation constant, pKa of compound in aqueous solution in presence of EtOH by spectrometric method; conditions: aqueous solution with EtOH
[18] = Dissociation constant, pKa2 of compound in HCL or HCL salt; format: physicochemical; conditions: HCl or HCl salt solution
[19] = Dissociation constant, pKa1 of compound in HCL or HCL salt; format: physicochemical; conditions: HCl or HCl salt solution

Histamine H3 receptor, sequence (Q9Y5N1 whole entry): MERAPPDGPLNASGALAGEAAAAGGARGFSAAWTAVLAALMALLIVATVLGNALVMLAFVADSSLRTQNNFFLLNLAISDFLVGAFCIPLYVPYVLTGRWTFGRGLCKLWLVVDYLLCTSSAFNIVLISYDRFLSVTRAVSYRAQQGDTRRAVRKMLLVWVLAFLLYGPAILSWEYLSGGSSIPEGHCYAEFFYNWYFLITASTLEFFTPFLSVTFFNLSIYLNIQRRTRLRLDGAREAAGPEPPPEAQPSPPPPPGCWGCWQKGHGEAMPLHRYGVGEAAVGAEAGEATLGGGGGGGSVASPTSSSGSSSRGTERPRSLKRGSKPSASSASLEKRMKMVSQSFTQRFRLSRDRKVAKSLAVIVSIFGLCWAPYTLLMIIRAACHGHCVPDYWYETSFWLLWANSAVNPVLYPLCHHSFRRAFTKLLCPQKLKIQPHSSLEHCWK

Cc1nc(N)sc1CCCN/C(N)=N/C(=O)NCC(C)c1ccc(C(C)C)cc1 (stereo not given)
Ki (Histamine H3 receptor): 7.94 µM
Ki (Histamine H4 receptor): 2.63 µM
EC50 (Histamine H2 receptor [1]): 282 nM
EC50 (Histamine H2 receptor [2]): 34.7 nM
Intrinsic activity (Histamine H2 receptor [3]): 0.25
Intrinsic activity (Histamine H2 receptor [4]): 0.59
Ki (Histamine H2 receptor [5]): 148 nM
Ki (Histamine H1 receptor): 4.9 µM

Cc1nc(N)sc1CCCN/C(N)=N/C(=O)NCC(c1ccccc1)C(C)C (stereo not given)
Ki (Histamine H3 receptor): 11.7 µM
Ki (Histamine H4 receptor): 5.89 µM
EC50 (Histamine H2 receptor [1]): 158 nM
EC50 (Histamine H2 receptor [2]): 30.9 nM
Intrinsic activity (Histamine H2 receptor [3]): 0.11
Intrinsic activity (Histamine H2 receptor [4]): 0.52
Ki (Histamine H2 receptor [5]): 102 nM
Ki (Histamine H1 receptor): 5.89 µM

CCCCCCNC(=O)/N=C(\N)Nc1cccc(-c2csc(N)n2)c1
Ki (Histamine H3 receptor): 11 µM
Ki (D(2) dopamine receptor [6]): 2510 nM
Ki (Histamine H4 receptor): 9.55 µM
Ki (D(3) dopamine receptor [7]): 1290 nM
pKb (Histamine H2 receptor [8]): 6.14
Ki (Histamine H2 receptor [5]): 692 nM

N/C(=N\C(=O)NC1CCCCC1)Nc1cccc(-c2csc(N)n2)c1
Ki (Histamine H4 receptor): 13.5 µM
pKb (Histamine H2 receptor [8]): 5.4
Ki (Histamine H2 receptor [5]): 4470 nM

N/C(=N\C(=O)Nc1ccccc1)Nc1cccc(-c2csc(N)n2)c1
Ki (Histamine H4 receptor): 64.6 µM
pKb (Histamine H2 receptor [8]): 4.76
Ki (Histamine H2 receptor [5]): 372000 nM

Cc1nc(N)sc1CCCN/C(N)=N/C(=S)NCC(c1ccccc1)c1ccccc1
Ki (Histamine H3 receptor): 46.8 µM
Ki (Histamine H4 receptor): 21.4 µM
pEC50 [9]: inactive
Ki (Histamine H2 receptor [5]): 1450 nM
Ki (Histamine H1 receptor): 44.7 µM

Cc1nc(N)sc1CCCN/C(N)=N/C(=O)NCC(C)CCc1ccccc1 (stereo not given)
EC50 (D(2) dopamine receptor [10]): 5.37 µM
Ki (Histamine H3 receptor): 9.12 µM
Ki (D(2) dopamine receptor [6]): 355 nM
Ki (Histamine H4 receptor): 3.24 µM
EC50 (Histamine H2 receptor [1]): 355 nM
EC50 (Histamine H2 receptor [2]): 29.5 nM
Ki (D(3) dopamine receptor [7]): 45.7 nM
Intrinsic activity (Histamine H2 receptor [3]): 0.2
Intrinsic activity (Histamine H2 receptor [4]): 0.69
Ki (Histamine H2 receptor [5]): 63.1 nM
Ki (Histamine H1 receptor): 1.35 µM
EC50 (D(3) dopamine receptor [11]): 891 nM

Cc1csc(N)n1
pKa [12]: 5.77
pKa [13]: 4.64
pKa [14]: 5.95

CCCCCCNC(=O)/N=C(\N)NCCCc1sc(N)nc1C
EC50 (D(2) dopamine receptor [10]): 1.74 µM
Ki (Histamine H3 receptor): 5.62 µM
Intrinsic activity [15]: 0.95
Ki (D(2) dopamine receptor [6]): 562 nM
Ki (Histamine H4 receptor): 8.13 µM
EC50 (Histamine H2 receptor [1]): 85.1 nM
EC50 (Histamine H2 receptor [2]): 38.9 nM
Ki (D(3) dopamine receptor [7]): 14.1 nM
Intrinsic activity (Histamine H2 receptor [4]): 0.6
EC50 (Histamine H2 receptor [16]): 15.8 nM
Ki (Histamine H2 receptor [5]): 28.8 nM
Ki (Histamine H1 receptor): 7.76 µM
EC50 (D(3) dopamine receptor [11]): 23.4 nM

C[C@@H](NC(=O)/N=C(\N)NCCCc1ccccc1)c1ccccc1
pKa [12]: 7.96

CCCNC(=O)/N=C(\N)Nc1cccc(-c2csc(N)n2)c1
Ki (Histamine H4 receptor): > 100 µM
pKb (Histamine H2 receptor [8]): 4.91
Ki (Histamine H2 receptor [5]): 5250 nM

Cc1nc(N)sc1C
pKa [12]: 6.28
pKa [17]: 6.29

Cc1nc(N)sc1CCCN/C(N)=N/C(=O)N[C@H](C)c1ccccc1
Ki (Histamine H3 receptor): 43.7 µM
pKa [18]: 7.47
Ki (Histamine H4 receptor): 13.5 µM
EC50 (Histamine H2 receptor [1]): 45.7 nM
Ki (D(3) dopamine receptor [7]): 6.17 nM
EC50 (Histamine H2 receptor [16]): 7.59 nM
Ki (Histamine H2 receptor [5]): 17.8 nM
Ki (Histamine H1 receptor): 8.71 µM
pKa [19]: 4.68
EC50 (D(3) dopamine receptor [11]): 15.5 nM

Cc1nc(N)sc1CCCN/C(N)=N/C(=O)NCC(C)C1CCCCC1 (stereo not given)
EC50 (D(2) dopamine receptor [10]): 3.24 µM
Ki (Histamine H3 receptor): 10 µM
Ki (D(2) dopamine receptor [6]): 263 nM
Ki (Histamine H4 receptor): 1.91 µM
EC50 (Histamine H2 receptor [1]): 224 nM
EC50 (Histamine H2 receptor [2]): 21.9 nM
Ki (D(3) dopamine receptor [7]): 43.7 nM
Intrinsic activity (Histamine H2 receptor [3]): 0.4
Intrinsic activity (Histamine H2 receptor [4]): 0.65
Ki (Histamine H2 receptor [5]): 39.8 nM
Ki (Histamine H1 receptor): 2.34 µM
EC50 (D(3) dopamine receptor [11]): 263 nM

CCCNC(=O)/N=C(\N)NCC
pKa [12]: 8.31

— ChEMBL document CHEMBL4813951 (Eur J Med Chem, 2021)
